According to US9149034B2, “Agrochemical formulations comprising co-polymers based on diisocyanates” (BASF SE, priority 2006, dated 2015):

Legend:
[1] = Root uptake test with radioactively marked boscalid, drench of wheat plants in vermiculite; details: in vivo, 120 h
Procedure: To test the root systemicity of the ai, radioactively marked boscalid (prepared in analogy to EP 0545099 based on ^14C marked pyridin) was used. For the tests wheat plants in vermiculite were drenched with boscalid/polymer solutions in water/acetone mixtures. As reference boscalid solutions in water/acetone mixtures without polymers were used [25 μl cold active solution (10000 ppm stock solution in acetone), 20 μl hot active solution (0.1 ppm in acetone, 1 μl corresponds to ˜22000 Bcq), 25 μl acetone and 25 μl polymer solution (10000 ppm stock solution in water) were mixed and refilled with water to 10 ml. After 48 and 120 hours leafs were cut from the plant and dissolved in Soluene 350 (60-80% toluene, 20-40% dodecyl(dimethyl)(tetradecyl)ammonium hydroxide, 2.5-10% methanol). Afterwards the radioactivity in the plant material was measured. High radioactivity in the plant material corresponds to high active ingredient uptake.

[2] = system: Alteria, ALTESO P6 (Bayer); test: Test with pathogenes: tomatoe plants in Hoagland solution with boscalid or boscalid/polymer, infested with fungus; format: in vivo; details: for Infestation Rating: Table 3 experiment, untreated = 100%; for Rating (infestation): Table 4 experiment
From the text: To test the polymers with the actual pathogenes, tomatoe plants were directly grown in hoagland solution. Hoagland solution consists of the following ingredients 0.25 v % of 1M KNO3 solution in water, 0.1 v % of 1M MgSO4 solution in water, 0.05 v % of 1M KH2PO4 solution in water, 0.25 v % 1M Ca(NO3)2) solution in water, 0.05 v % of a trace solution consisting of 2.86 g/l H3BO3, 1.81 g/l MnCl2*4H2O, 0.22 g/l ZnSO4*7H2O, 0.08 g/l CuSO4*5H2O, 0.016 g/l MoO3 in water, 0.075 v % Sequestrene 138 Fe consisting of 30 g/l sodium ferric ethylenediamine di-(o-hydroxyphenylacetate) in water, 99.225 v % water sterilized and pH adjusted to 6-6.5 with NaOH.
After 16 days the plants were transfered to containers with 240 ml boscalid or boscalid/polymer (the ratio boscalid/polymer is 1:1 per weight) solutions (1.3, 0.43, 0.14 and 0.05 ppm) in Hoagland solution containing 0.8 vol % acetone. 6 days after the ai application the plants were infested with fungus (Alteria, ALTESO P6 (Bayer)). After 5 additional days the infestation was rated (column “Infestation Rating”) and plants that had not been treated with ai were used as reference for 100% infestation.
Two separate experiments were performed. In one test, polymers A and B were tested (see table 3), in the other experiment, polymers C and F were tested (see table 4).

[3] = Leaf uptake of radioactively marked boscalid applied dropwise to leaves of wheat plants; details: in vivo, 168 h
Procedure: To test the leaf uptake with polymers water/DMF solutions with radioactively marked boscalid (1 μl cold active solution (10000 ppm solution in DMF), 10 μl hot active solution (0.1 ppm in DMF, ˜2000000 counts/μl), 9 μl polymer solution (1000 ppm solution in water) and 80 μl DMF) were applied dropwise to the leaves of a wheat plants (10 drops per leap. After 48 and 168 hours respectively. The leaves were cut off after the respective time and the excess active on the leaf surface eliminated by stripping the leaf with a cellulose acetate film. The leaves were then dissolved with Soluene 350 to determine the absolute amount of active ingredient that was taken up into the plant. As reference the active was applied in water/DMF solution without polymer.

[4] = 0.05 ppm active (or polymer/active 1:1)
[5] = 0.14 ppm active (or polymer/active 1:1)
[6] = 0.43 ppm active (or polymer/active 1:1)

SMILES: O=C(Nc1ccccc1-c1ccc(Cl)cc1)c1cccnc1Cl [Reference without polymer, boscalid]
- Uptake (radioactivity in leaf material, active ingredient uptake) [1]: 219 Bcq
- Infestation Rating [2, 4]: 77%
- Infestation Rating [2, 5]: 60%
- Infestation Rating [2, 6]: 13%
- Infestation Rating ([2]; 1.3 ppm active (or polymer/active 1:1), rated 5 days after infestation): 1%
- Rating (infestation) [2, 4]: 53%
- Rating (infestation) [2, 5]: 47%
- Rating (infestation) [2, 6]: 17%
- Rating (infestation) ([2]; 1.3 ppm active (or polymer/active 1:1)): 0%
- Uptake [% applied] [3]: 1.3 % applied
